Assay results published in PubChem BioAssay AID256 (DTP/NCI, 2004).
Where “and” joins values, the source holds several entries; their conditions need not be identical. Identical values can stand only once. Inconclusive results and toxic doses are left out.

Tested on: CD2F1 mice, L1210 leukemia ip, survival T/C
Assay: NCI In Vivo Anticancer Drug Screen. Data for tumor model L1210 Leukemia (intraperitoneal) in CD2F1 (CDF1) mice
Settings: endpoint: mean survival time, higher = longer survival
Method in brief: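 Vehicle-treated tumor-bearing mice served as controls (C) for compound-treated mice (T). Reported figure is T divided by C.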

[1] = dose: 25.0 mg/kg/injection, schedule: Q01DX005 (ip), vehicle: water
[2] = dose: 50.0 mg/kg/injection, schedule: Q01DX005 (ip), vehicle: water
[3] = dose: 100.0 mg/kg/injection, schedule: Q01DX005 (ip), vehicle: water
[4] = dose: 100.0 mg/kg/injection, schedule: Q01DX001 (ip), vehicle: saline
[5] = dose: 200.0 mg/kg/injection, schedule: Q01DX001 (ip), vehicle: saline
[6] = dose: 400.0 mg/kg/injection, schedule: Q01DX001 (ip), vehicle: saline
[7] = dose: 100.0 mg/kg/injection, schedule: Q01DX001 (ip), vehicle: saline with Tween-80
[8] = dose: 100.0 mg/kg/injection, schedule: Q01DX009 (ip), vehicle: saline with Tween-80
[9] = dose: 200.0 mg/kg/injection, schedule: Q01DX001 (ip), vehicle: saline with Tween-80
[10] = dose: 200.0 mg/kg/injection, schedule: Q01DX009 (ip), vehicle: saline with Tween-80
[11] = dose: 400.0 mg/kg/injection, schedule: Q01DX001 (ip), vehicle: saline with Tween-80
[12] = dose: 400.0 mg/kg/injection, schedule: Q01DX009 (ip), vehicle: saline with Tween-80
[13] = dose: 50.0 mg/kg/injection, schedule: Q01DX009 (ip), vehicle: saline with Tween-80
[14] = dose: 100.0 mg/kg/injection, schedule: Q04DX003 (ip), vehicle: saline with Tween-80
[15] = dose: 200.0 mg/kg/injection, schedule: Q04DX003 (ip), vehicle: saline with Tween-80

[N-]=[N+]=NC1C(O)C(CO)OC1n1c(=O)[nH]c2c(N)ncnc21 (stereo not given)
T/C (dose: 12.5 mg/kg/injection, schedule: Q01DX005 (ip), vehicle: water): 94 % of control
T/C [1]: 99 % of control
T/C [2]: 97 % of control
T/C [3]: 97 % of control
T/C (dose: 200.0 mg/kg/injection, schedule: Q01DX005 (ip), vehicle: water): 97 % of control

CNc1ncnc2c(C3OC(CO)C(O)C3O)[nH]nc12 (stereo not given)
T/C [1]: 108 % of control
T/C [2]: 120 % of control
T/C [3]: 96 % of control

CCOC(=O)C(CCCl)C(=O)OCC
T/C [4]: 104 % of control
T/C [5]: 104 % of control
T/C [6]: 101 % of control

c1cc(-c2cc3ccc(C4=NCCN4)cc3[nH]2)ccc1C1=NCCN1
T/C (dose: 3.12 mg/kg/injection, schedule: Q01DX009 (ip), vehicle: saline): 111 % of control
T/C (dose: 3.12 mg/kg/injection, schedule: Q01DX009 (ip), vehicle: suspension in saline): 112 % of control
T/C (dose: 6.25 mg/kg/injection, schedule: Q01DX009 (ip), vehicle: saline): 124 % of control
T/C (dose: 6.25 mg/kg/injection, schedule: Q01DX009 (ip), vehicle: suspension in saline): 118 % of control
T/C (dose: 12.5 mg/kg/injection, schedule: Q01DX009 (ip), vehicle: saline): 119 % of control
T/C (dose: 12.5 mg/kg/injection, schedule: Q01DX009 (ip), vehicle: suspension in saline): 283 % of control
T/C (dose: 25.0 mg/kg/injection, schedule: Q01DX009 (ip), vehicle: suspension in saline): 295 % of control and 336 % of control and 337 % of control
T/C (dose: 50.0 mg/kg/injection, schedule: Q01DX009 (ip), vehicle: saline): 88 % of control

O=C1C(=O)c2cccnc2C(NCc2ccccc2)=C1Cl
T/C (dose: 75.0 mg/kg/injection, schedule: Q04DX003 (ip), vehicle: saline): 98 % of control
T/C (dose: 150.0 mg/kg/injection, schedule: Q04DX003 (ip), vehicle: saline): 101 % of control
T/C (dose: 300.0 mg/kg/injection, schedule: Q04DX003 (ip), vehicle: saline): 96 % of control

CC(C)N1C(=O)[N+](C)(C)N=C1[O-]
T/C [7]: 103 % of control
T/C [8]: 89 % of control
T/C [9]: 101 % of control
T/C [10]: 97 % of control
T/C [11]: 104 % of control
T/C [12]: 101 % of control

COc1cc(OC)c(NC(=O)Nc2ccc(C(=O)O)cc2)cc1Cl
T/C [13]: 89 % of control
T/C [8]: 100 % of control
T/C [10]: 96 % of control

CC(Cc1ccccc1)NC(C)Cc1ccccc1 (stereo not given)
T/C [14]: 98 % of control
T/C [15]: 102 % of control

O=C(CCC(=O)Nc1ccc(S(=O)(=O)NCCO)cc1)Nc1ccc(S(=O)(=O)NCCO)cc1
T/C (dose: 12.5 mg/kg/injection, schedule: Q01DX001 (ip), vehicle: saline with Tween-80): 105 % of control
T/C (dose: 12.5 mg/kg/injection, schedule: Q04DX002 (ip), vehicle: saline with Tween-80): 96 % of control
T/C (dose: 25.0 mg/kg/injection, schedule: Q01DX001 (ip), vehicle: saline with Tween-80): 107 % of control
T/C (dose: 25.0 mg/kg/injection, schedule: Q04DX002 (ip), vehicle: saline with Tween-80): 96 % of control
T/C (dose: 50.0 mg/kg/injection, schedule: Q01DX001 (ip), vehicle: saline with Tween-80): 97 % of control
T/C (dose: 50.0 mg/kg/injection, schedule: Q04DX002 (ip), vehicle: saline with Tween-80): 86 % of control

COC1CCC(/C(C#N)=C/C2CCC(N(C)C)CC2)CC1 (stereo not given)
T/C [8]: 89 % of control
T/C [10]: 100 % of control
T/C [12]: 96 % of control

CCOc1ccc(-n2c(=O)c(N=Nc3ccccc3)c(O)n(-c3ccccc3OC)c2=S)cc1
T/C [7]: 102 % of control
T/C [9]: 89 % of control
T/C [11]: 90 % of control

COC(=O)/C(=C\c1ccccc1Cl)C(C)=O
T/C [14]: 104 % of control
T/C [15]: 98 % of control
T/C (dose: 400.0 mg/kg/injection, schedule: Q04DX003 (ip), vehicle: saline with Tween-80): 102 % of control

CC1(C)OC(C(O)COC(=O)c2ccccc2)C(C(O)COC(=O)c2ccccc2)O1 (stereo not given)
T/C (dose: 50.0 mg/kg/injection, schedule: Q01DX009 (ip), vehicle: Klucel (hydroxypropylcellulose) (HPC)): 98 % of control
T/C (dose: 100.0 mg/kg/injection, schedule: Q01DX009 (ip), vehicle: Klucel (hydroxypropylcellulose) (HPC)): 98 % of control
T/C (dose: 200.0 mg/kg/injection, schedule: Q01DX009 (ip), vehicle: Klucel (hydroxypropylcellulose) (HPC)): 102 % of control

Nc1nc(N)c2c(=O)c(CSc3ccc(C(=O)NC(CCC(=O)O)C(=O)O)cc3)c[nH]c2n1 (stereo not given)
T/C (dose: 0.5 mg/kg/injection, schedule: Q01DX005 (ip), vehicle: sodium bicarbonate): 92 % of control and 104 % of control
T/C (dose: 1.0 mg/kg/injection, schedule: Q01DX005 (ip), vehicle: sodium bicarbonate): 92 % of control and 106 % of control
T/C (dose: 2.0 mg/kg/injection, schedule: Q01DX005 (ip), vehicle: sodium bicarbonate): 89 % of control and 108 % of control
T/C (dose: 4.0 mg/kg/injection, schedule: Q01DX005 (ip), vehicle: sodium bicarbonate): 95 % of control and 104 % of control
T/C (dose: 8.0 mg/kg/injection, schedule: Q01DX005 (ip), vehicle: sodium bicarbonate): 95 % of control and 108 % of control
T/C (dose: 16.0 mg/kg/injection, schedule: Q01DX005 (ip), vehicle: sodium bicarbonate): 95 % of control and 106 % of control

C=CCSc1ncnc2c1c1c(N)ncnc1n2C1OC(CO)C(O)C1O (stereo not given)
T/C (dose: 6.25 mg/kg/injection, schedule: Q01DX005 (ip), vehicle: other): 103 % of control
T/C (dose: 12.5 mg/kg/injection, schedule: Q01DX005 (ip), vehicle: other): 109 % of control
T/C (dose: 25.0 mg/kg/injection, schedule: Q01DX005 (ip), vehicle: other): 101 % of control
T/C (dose: 50.0 mg/kg/injection, schedule: Q01DX005 (ip), vehicle: other): 107 % of control
T/C (dose: 100.0 mg/kg/injection, schedule: Q01DX005 (ip), vehicle: other): 103 % of control
T/C (dose: 200.0 mg/kg/injection, schedule: Q01DX005 (ip), vehicle: other): 109 % of control

NC(N)=NCCCC(NC(c1ccccc1)(c1ccccc1)c1ccccc1)C(=O)O (stereo not given)
T/C [4]: 88 % of control
T/C [5]: 92 % of control
T/C [6]: 98 % of control

C1CC[N-]CC1.C1CC[N-]CC1.CC(=O)CC(C)=O.CC(=O)CC(C)=O.[Ni+2]
T/C (dose: 10.0 mg/kg/injection, schedule: Q04DX003 (ip), vehicle: saline): 94 % of control
T/C (dose: 20.0 mg/kg/injection, schedule: Q04DX003 (ip), vehicle: saline): 96 % of control
T/C (dose: 40.0 mg/kg/injection, schedule: Q04DX003 (ip), vehicle: saline): 104 % of control

S=C(Nc1ccccc1)N1CCC(CCCC2CCN(C(=S)Nc3ccccc3)CC2)CC1
T/C [14]: 91 % of control
T/C [15]: 88 % of control

COc1ccc2nc3cc(Cl)ccc3c(NCCC[N+](C)(C)CCCCCCCCCCCCCCCC[N+](C)(C)CCCNc3c4ccc(Cl)cc4nc4ccc(OC)cc34)c2c1
T/C (dose: 1.56 mg/kg/injection, schedule: Q01DX009 (ip), vehicle: other): 96 % of control
T/C (dose: 3.13 mg/kg/injection, schedule: Q01DX009 (ip), vehicle: other): 94 % of control
T/C (dose: 6.25 mg/kg/injection, schedule: Q01DX009 (ip), vehicle: other): 105 % of control

Cc1c(C)c(C)c2c(c1C)CCC2O (stereo not given)
T/C (dose: 12.5 mg/kg/injection, schedule: Q01DX009 (ip), vehicle: saline with Tween-80): 102 % of control and 105 % of control
T/C (dose: 25.0 mg/kg/injection, schedule: Q01DX009 (ip), vehicle: saline with Tween-80): 97 % of control and 94 % of control
T/C [13]: 100 % of control [middle of 4 runs]

OC1CCSc2ccc3ccccc3c21 (stereo not given)
T/C [7]: 108 % of control
T/C [9]: 105 % of control
T/C [11]: 103 % of control
